{"source": "paper PMC12737022", "about": "“Evaluations of Sex Differences in Dosimetry in Rats Following Perfluorohexanesulfonamide (PFHxSA) Oral Exposure” (Toxics, 2025)", "origin": "cited, not measured here", "key": {"[1]": {"parameters": "method as in PMID 31078680", "conditions": "across both sexes; cited from earlier work"}, "[2]": {"parameters": "method as in PMID 37756184", "conditions": "bariatric surgery patients; cited from earlier work"}}}
{"smiles": "O=S(=O)(O)C(F)(F)C(F)(F)C(F)(F)C(F)(F)C(F)(F)C(F)(F)F", "note": "[PFHxS, perfluorohexane sulfonic acid]", "values": [{"measurement": "Liver partitioning summary values", "setting": "[1]", "value": "0.16–0.44"}, {"measurement": "Human liver/plasma partitioning Kp", "setting": "[2]", "value": 0.12}]}
